Measurements as given in US8507528B2, “2-alkyl-indazole compounds for the treatment of certain cns-related disorders” (Aziende Chimiche Riunite Angelini Francesco A.C.R.A.F. …, priority 2006, dated 2013).
Counter-ions that a name gives are not always drawn. Like-named read-outs stand apart in the source and are kept apart here.

What was measured:
[1] = molecular target: T1, human serotonin 5-HT2A receptor (Homo sapiens, UniProt P28223); experiment: Test B: binding to the human serotonin 5-HT2A receptor; conditions: human recombinant cells, six concentrations; read-out: (h)5-HT2a (pKi) (converted)
T1 construct: expressed in transfected cells
Source text: (§1) These tests measured the percentage inhibition induced by the compounds of formula (I) according to the present invention at six different concentrations, from which the pKi values of the compounds in relation to the individual receptors were obtained.
Binding to the human serotonin 5-HT2A receptor was effected by the standard methodology described in Bonhaus D. W., Bach C., De Souza A., Salazar F. H., Matsuoka B. D., Zuppan P., Chan H. W., Eglen R. M. (1995) “The pharmacology and distribution of human 5-hydroxytryptamine2B (5-HT2B) receptor gene products: comparison with 5-HT2A and 5-HT2C receptors.” Br. J. Pharmacol. 115(4): 622-628; and Saucier C., Albert P. R. (1997) “Identification of an endogenous 5-hydroxytryptamine2A receptor in NIH-3T3 cells: agonist-induced down-regulation involves decreases in receptor RNA and number.” J. Neurochem. 68(5): 1998-2011. The test compounds were tested in duplicate at a single concentration of 1 μM and then at six concentrations to find the pKi values of the individual compounds.

[2] = molecular target: T2, serotonin 5-HT2C receptor (Homo sapiens, UniProt P28335); experiment: Test B: binding to the serotonin 5-HT2C receptor; conditions: human recombinant cells (CHO-K1), six concentrations; read-out: (h)5-HT2c (pKi) (converted)
T2 construct: expressed in transfected cells; host or cells: CHO-K1
T2 sequence (P28335 33-458): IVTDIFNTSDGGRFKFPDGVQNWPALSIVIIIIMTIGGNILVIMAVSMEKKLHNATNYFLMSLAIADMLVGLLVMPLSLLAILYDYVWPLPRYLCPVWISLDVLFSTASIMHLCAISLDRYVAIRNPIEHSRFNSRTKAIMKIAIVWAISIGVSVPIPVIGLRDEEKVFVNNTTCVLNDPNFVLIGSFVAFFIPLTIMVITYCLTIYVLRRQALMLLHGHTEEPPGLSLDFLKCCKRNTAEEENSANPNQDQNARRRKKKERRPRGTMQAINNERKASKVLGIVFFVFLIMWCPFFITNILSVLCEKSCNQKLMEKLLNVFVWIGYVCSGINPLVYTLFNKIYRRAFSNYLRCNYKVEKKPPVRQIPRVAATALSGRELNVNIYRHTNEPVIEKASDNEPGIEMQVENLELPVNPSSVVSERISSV
Source text: as §1
Binding to the serotonin 5-HT2C receptor was effected using the standard methodology described in: Wolf W. A. and Schutz J. S. (1997) “The serotonin 5-HT2C receptor is a prominent serotonin receptor in basal ganglia: evidence from functional studies on serotonin-mediated phosphoinositide hydrolysis.” J. Neurochem. 69: 1449-1458. CHO-K1 recombinant cells for expression of the human enzyme were used as starting material, and SB242084 as reference compound. The test compounds were tested in duplicate at a single concentration of 1 μM and then at six concentrations to find the pKi values of the individual compounds.

[3] = molecular target: T3, rat 5-HT2A serotonin receptor (Rattus norvegicus, UniProt P14842); experiment: biochemical
Protocol: (§2) The non-specific binding was measured in the presence of 10 μM methysergide. The assay was conducted in Tris-HCl 50 mM buffer (pH 7.4 at 37° C.), with incubation for 2 hours at 37° C. The test compounds were dissolved in DMSO, then diluted in buffer (final DMSO concentration 0.01%) and plated on 96-well plates. Methysergide and/or ketanserin were used as reference compounds.
(§3) Binding is initiated by addition of 200 μl of homogenate (450 μg/ml protein content); after incubation, the membranes were filtered on glass-fibre filters (GF/B) (Unifilter, Packard) treated with 0.3% polyethyleneimine. Then the filters were washed with buffer solution and stove-dried for 30 minutes at 45° C. The scintillation liquid was added to each well, and 10 hours later the radioactivity was measured for 1 minute using a TopCount (Packard). The test compounds were tested in duplicate at 8 concentrations (from 10^-12 to 10^-5 M).
(§4) The IC50 values for each compound were calculated using non-linear regression analysis (GraphPad PRISM software) and the inhibition constants Ki were determined using the equation described by Cheng Y. and Prussof W. H. (1973) “Relationship between the inhibition constant (Ki) and the concentration of inhibitor which causes 50 percent inhibition (150) of an enzyme reaction.” Biochem. Pharmacol. 22: 3099-3108.

[4] = molecular target: T3, rat 5-HT2A serotonin receptor
Protocol: as §2, §3, §4

T3 sequence (P14842 whole entry): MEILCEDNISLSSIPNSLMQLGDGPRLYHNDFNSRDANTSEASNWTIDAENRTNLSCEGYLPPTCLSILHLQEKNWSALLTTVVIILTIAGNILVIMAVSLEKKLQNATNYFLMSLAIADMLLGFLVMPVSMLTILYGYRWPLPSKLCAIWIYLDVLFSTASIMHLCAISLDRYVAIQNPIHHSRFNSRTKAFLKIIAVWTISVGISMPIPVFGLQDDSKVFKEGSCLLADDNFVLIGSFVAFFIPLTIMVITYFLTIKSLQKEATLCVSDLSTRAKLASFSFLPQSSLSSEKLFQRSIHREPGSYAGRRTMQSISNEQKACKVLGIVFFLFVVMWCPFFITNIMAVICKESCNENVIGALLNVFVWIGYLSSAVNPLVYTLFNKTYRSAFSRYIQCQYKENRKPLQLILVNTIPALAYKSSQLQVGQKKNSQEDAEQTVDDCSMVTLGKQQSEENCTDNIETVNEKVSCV
T1 sequence (P28223 whole entry): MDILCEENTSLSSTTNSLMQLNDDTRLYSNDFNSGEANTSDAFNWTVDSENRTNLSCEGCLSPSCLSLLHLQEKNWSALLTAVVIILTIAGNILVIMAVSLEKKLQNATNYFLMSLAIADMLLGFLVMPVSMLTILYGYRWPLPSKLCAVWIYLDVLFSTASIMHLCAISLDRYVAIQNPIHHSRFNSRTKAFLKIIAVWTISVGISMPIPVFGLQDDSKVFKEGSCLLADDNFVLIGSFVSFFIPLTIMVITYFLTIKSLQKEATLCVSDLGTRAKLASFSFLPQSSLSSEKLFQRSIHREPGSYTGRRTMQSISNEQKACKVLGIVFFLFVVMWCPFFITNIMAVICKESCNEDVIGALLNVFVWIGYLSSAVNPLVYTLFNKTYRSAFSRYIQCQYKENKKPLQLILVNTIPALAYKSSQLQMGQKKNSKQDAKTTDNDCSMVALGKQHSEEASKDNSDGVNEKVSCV

Molecule	melting point	Ki [3]	other results
Cl.Cn1nc2ccccc2c1C(=O)NC1CCN(CCc2ccc(F)cc2)CC1	224 to 228 °C		
Cn1nc2ccccc2c1C(=O)NCC1CCN(CCc2ccccc2)CC1 [Compound 1, 2-Methyl-N-{[1-(2-phenylethyl)piperidin-4-yl]methyl}-2H-indazole-3-carboxamide hydrochloride hydrate]		32.4 nM	Ki [1]: 2.63 nM; Ki [2]: 89.1 nM
Cn1nc2ccccc2c1C(=O)NCC1CCN(CCc2ccc(O)cc2)CC1 [Compound 3, N3-({1-[2-(4-Hydroxyphenyl)ethyl]hexahydro-4-pyridinyl}methyl-2-methyl-2H-3-indazolecarboxamide hydrochloride hydrate]		47.9 nM	Ki [1]: 2.09 nM; Ki [2]: 148 nM
COc1ccc2nn(C)c(C(=O)NCC3CCN(CCc4ccc(O)cc4)CC3)c2c1 [Compound 4, N-({1-[2-(4-Hydroxyphenyl)ethyl]piperidin-4-yl}methyl)-5-methoxy-2-methyl-2H-indazole-3-carboxamide]	218 to 219 °C (dec.)	47.9 nM	
COc1ccc(CCN2CCC(CNC(=O)c3c4ccccc4nn3C)CC2)cc1.Cl [Compound 5, N-({1-[2-(4-Methoxyphenyl)ethyl]piperidin-4-yl}methyl)-2-methyl-2H-indazole-3-carboxamide hydrochloride]	80 °C (dec.)	1580 nM	
COCCn1nc2ccccc2c1C(=O)NCC1CCN(CCc2ccc(F)cc2)CC1.Cl [Compound 7, N-({1-[2-(4-Fluorophenyl)ethyl]piperidin-4-yl}methyl)-2-(2-methoxyethyl)-2H-indazole-3-carboxamide hydrochloride]	193 to 194 °C	91.2 nM	
Cl.Cn1nc2ccccc2c1C(=O)NCC1CCN(CCc2ccc(F)cc2)CC1 [Compound 8, N-({1-[2-(4-Fluorophenyl)ethyl]piperidin-4-yl}methyl)-2-methyl-2H-indazole-3-carboxamide hydrochloride]	208 to 209 °C	15.8 nM	Ki [1]: 1.62 nM; Ki [2]: 53.7 nM
Cn1nc2ccccc2c1C(=O)N1CCC(CNCCc2ccc(F)cc2F)CC1 [Compound 9, 2-(2,4-Difluorophenyl)-N-({1-[(2-methyl-2H-indazole-3-yl)carbonyl]piperidin-4-yl}methyl)ethanamine hydrochloride]		631 nM	
Cl.Cn1nc2ccccc2c1C(=O)N1CCC(CNCCc2ccc(F)cc2)CC1 [Compound 10, 2-(4-Fluorophenyl)-N-({1-[(2-methyl-2H-indazol-3-yl)carbonyl)piperidin-4-yl}methyl]ethanamine hydrochloride]	198 to 199 °C	263 nM	
N,2-Dimethyl-N-{[1-(2-phenylethyl)piperidin-4-yl]methyl}-2H-indazole-3-carboxamide hydrochloride hemihydrate [Compound 2]			Ki [4]: 813 nM

Second part, led by results:

melting point	Ki [3]	Molecule	other results
117 to 119 °C		Cn1nc2ccccc2c1C(=O)NC1CCN(CCc2ccc(F)cc2)C1 (stereo not shown) [Compound 15, N-{1-[2-(4-fluorophenyl)ethyl]pyrrolidin-3-yl}-2-methyl-2H-indazole-3-carboxamide]	
174 to 176 °C		Cn1nc2ccccc2c1C(=O)NCC1CCN(CCc2ccc(C(F)(F)F)cc2)CC1 [Compound 17, 2-methyl-N-[(1-{2-[4-(trifluoromethyl)phenyl]ethyl}piperidin-4-yl)methyl]-2H-indazole-3-carboxamide]	
164 to 166 °C		Cn1nc2ccccc2c1C(=O)NC1CCN(CCc2ccccc2F)CC1 [Compound 18, N-{1-[2-(2-fluorophenyl)ethyl)piperidin-4-yl}-2-methyl-2H-indazole-3-carboxamide]	
136 to 140 °C		Cn1nc2ccccc2c1C(=O)NCCCN1CCC(c2ccc(F)cc2)CC1 [Compound 20, N-{3-[4-(4-fluorophenyl)piperidin-1-yl]propyl}-2-methyl-2H-indazole-3-carboxamide]	
167 to 169 °C		Cn1nc2ccccc2c1C(=O)NC1CCN(Cc2ccccc2)CC1 [Compound 21, N-(1-benzylpiperidin-4-yl)-2-methyl-2H-indazole-3-carboxamide]	
162 to 165 °C		Cn1nc2ccccc2c1C(=O)NC1CCN(CCCc2ccc(F)cc2)CC1 [Compound 22, N-{1-[3-(4-fluorophenyl)propyl]piperidin-4-yl}-2-methyl-2H-indazole-3-carboxamide]	
122 to 126 °C		Cn1nc2ccccc2c1C(=O)NCC1CCN(CCc2ccc(F)cc2F)CC1 [Compound 23, N-({1-[2-(2,4-difluorophenyl)ethyl]piperidin-4-yl}methyl)-2-methyl-2H-indazole-3-carboxamide]	
